Reference: patent publication US12459940B2, “Oxazole compound as multi-targeted inhibitor of IRAK4 and BTK” (SHANGHAI FOSUN PHARMACEUTICAL INDUSTRIAL DEVELOPMENT CO., …, priority 2019, dated 2025)
pIC50: −log10 of the molar value. Like-named read-outs stand apart in the source and are kept apart here.

Columns and labels:
human IRAK4 = target: T1, human IRAK4 (Homo sapiens, UniProt Q9NWZ3); assay: In vitro IRAK4 kinase activity, 33P isotope-labeled kinase activity assay (Reaction Biology Corp); type: biochemical
T1 construct: purchased Reaction Biology Corp
T1 sequence (Q9NWZ3 1-460): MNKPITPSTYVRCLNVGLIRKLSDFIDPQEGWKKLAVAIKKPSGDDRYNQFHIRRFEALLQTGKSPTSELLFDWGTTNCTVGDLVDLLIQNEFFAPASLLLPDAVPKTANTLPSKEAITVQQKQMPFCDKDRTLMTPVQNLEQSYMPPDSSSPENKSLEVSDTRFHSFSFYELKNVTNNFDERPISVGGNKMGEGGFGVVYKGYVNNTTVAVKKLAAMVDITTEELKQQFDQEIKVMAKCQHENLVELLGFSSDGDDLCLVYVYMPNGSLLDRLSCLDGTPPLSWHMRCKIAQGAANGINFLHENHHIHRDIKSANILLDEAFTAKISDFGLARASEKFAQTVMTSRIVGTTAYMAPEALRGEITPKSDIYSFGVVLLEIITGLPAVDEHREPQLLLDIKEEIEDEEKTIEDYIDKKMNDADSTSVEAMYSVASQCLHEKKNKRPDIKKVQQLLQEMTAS
Experimental: The IC50 values were determined using ^33P isotope-labeled kinase activity assay (Reaction Biology Corp) to evaluate the inhibitory ability of the tested compounds on human IRAK4.
(§1) Buffer conditions: 20 mM Hepes (pH 7.5), 10 mM MgCl2, 1 mM EGTA, 0.02% Brij35, 0.02 mg/mL BSA, 0.1 mM Na3VO4, 2 mM DTT, 1% DMSO.
Test procedure: At room temperature, the tested compound was dissolved in DMSO to prepare a 10 mM solution for later use. The substrate was dissolved in a newly prepared buffer solution, and the tested IRAK4 kinase was added thereto and mixed evenly. The DMSO solution dissolved with the tested compound was added to the above reaction mixture mixed evenly using acoustic technique (Echo 550). After incubation for 15 minutes, ^33P-ATP was added to initiate the reaction.

human BTK = target: T2, human BTK (Homo sapiens, UniProt Q06187); assay: In vitro BTK kinase activity, 33P isotope-labeled kinase activity assay (Reaction Biology Corp); type: biochemical; conditions: 33P-ATP, 2 hours at room temperature
T2 construct: purchased Reaction Biology Corp
T2 sequence (Q06187 whole entry): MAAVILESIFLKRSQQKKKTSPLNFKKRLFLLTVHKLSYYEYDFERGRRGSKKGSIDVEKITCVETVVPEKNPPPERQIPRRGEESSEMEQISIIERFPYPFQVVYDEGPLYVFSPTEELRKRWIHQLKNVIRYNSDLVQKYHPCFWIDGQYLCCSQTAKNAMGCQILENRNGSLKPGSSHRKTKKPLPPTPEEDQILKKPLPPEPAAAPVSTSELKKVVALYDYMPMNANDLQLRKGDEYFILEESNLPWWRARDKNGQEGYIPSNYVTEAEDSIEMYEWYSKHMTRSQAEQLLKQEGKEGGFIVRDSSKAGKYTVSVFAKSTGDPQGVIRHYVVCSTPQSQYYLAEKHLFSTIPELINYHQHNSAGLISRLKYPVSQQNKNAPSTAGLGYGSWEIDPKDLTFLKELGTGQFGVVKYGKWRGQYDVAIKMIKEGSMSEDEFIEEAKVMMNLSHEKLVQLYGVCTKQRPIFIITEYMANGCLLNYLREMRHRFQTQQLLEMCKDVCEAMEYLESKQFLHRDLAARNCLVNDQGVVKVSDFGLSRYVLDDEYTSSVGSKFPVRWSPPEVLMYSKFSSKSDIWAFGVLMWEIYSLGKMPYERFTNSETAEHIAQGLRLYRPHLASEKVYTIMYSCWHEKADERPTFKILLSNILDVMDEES
Experimental: The IC50 values were determined using ^33P isotope-labeled kinase activity assay (Reaction Biology Corp) to evaluate the inhibitory ability of the tested compounds on human BTK.
as §1
Test procedure: At room temperature, the tested compound was dissolved in DMSO to prepare a 10 mM solution for later use. The substrate was dissolved in a newly prepared buffer solution, and the tested BTK kinase was added thereto and mixed evenly. The compound dissolved in DMSO was added to the kinase reaction mixture through Echo 550 (Acoustic technology; Nanoliter range). After incubation for 20 minutes at room temperature, ^33P-ATP was added to initiate the reaction. The reaction was carried out at room temperature for 2 hours, and the radioactivity of the reaction liquid point was detected by filtration-binding method with P81 ion exchange filter paper. The kinase activity data were expressed by comparing the kinase activity of the group containing the tested compound with the kinase activity of the blank group (only containing DMSO), and the IC50 value was obtained by curve fitting by Prism4 software (GraphPad), the experimental results are shown in Table 10.

[1] = tested on: OCI-LY10 human B-cell lymphoma cells; assay: OCI-LY10 cell proliferation inhibition (CellTiter-Glo); type: cell-based; conditions: OCI-Ly10, 72 h, treated for 3 days
Experimental: OCI-LY10 human B-cell lymphoma cells were cultured in a 37° C., 5% CO2 incubator. The composition of medium was IMDM (GIBCO, Cat #12440053); the supplementary compositions were 20% FBS (Hyclone, Cat #SH30084.03); 1% PenStrep (Thermo, Cat #SV30010).
The tumor cell lines OCI-LY10 and TMD8 were used to detect the effect of the compound on inhibiting tumor cell proliferation in vitro. The tumor cell line was cultured in a 37° C., 5% CO2 incubator according to the culture conditions shown, and passaged regularly, then the cells in the logarithmic growth phase were taken, counted, and spread in a 96-well plate (the cells in each well were adjusted to an appropriate concentration, a total of […] per well was added). After incubating overnight in a 37° C., 5% CO2 incubator, drugs with different concentration gradients (10 μL of drug solution was added) were added and treated for 3 days, then 50 μL of CellTiter-Glo working solution was added to each well, and the cell plate was wrapped with aluminum foil to avoid light. The culture plate was shaken on an orbital shaker for 2 minutes to induce cell lysis, and placed at room temperature for 10 minutes to stabilize the luminescence signal, then the luminescence signal was detected on the 2104 EnVision plate reader.
The Inhibition rate (IR) of the tested compound was calculated using the following formula: IR (%)=(1−(RLU compound−RLU blank control)/(RLU solvent control−RLU blank control))*100%.
The inhibition rates of different concentrations of the compounds were calculated in Excel, and then the inhibition curves were made by GraphPad Prism software and the related parameters were calculated, including the minimum inhibition rate, the maximum inhibition rate and IC50.

[2] = tested on: TNF-α production in THP-1 cells; assay: THP-1 cytological TNFa ELISA assay (LPS-stimulated); type: cell-based; conditions: Homo sapiens, TNF-α in culture supernatant, 150 ng/mL LPS, 18 hours
Experimental: THP-1 human acute […] leukemia cells were purchased from ATCC (Cat #TIB-202) and cultured at 37° C. in 5% CO2 incubator. The composition of medium was RPMI1640 (Gibco, Cat #22400-105), and the supplementary compositions were 10% FBS (Gibco, Cat #10091148); 1% PenStrep (Gibco, Cat #15140); 0.05 mM 2-Mercaptoethanol (Sigma, Cat #M6250).
TNF-α Elisa kit was used to detect the content of TNF-α in cell culture supernatant samples. TNF-α was produced by stimulating THP-1 cells with 150 ng/mL LPS (Sigma, Cat #L6529).
THP-1 cells cultured normally at logarithmic growth stage were seeded in a 96-well plate (Corning #3599) at a certain concentration (1*10^5/100 μL) and then put into a cell incubator for incubation. After two hours, 16.7 μL of different concentrations of the compound to be tested (8*final concentration) were added and incubated in an incubator. After one hour, 16.7 μL of 1200 ng/mL LPS was added and incubated in an incubator. After 18 hours, the culture supernatant samples were collected by centrifugation, and the content of TNF-α could be detected by TNF-α Elisa kit. Finally, OD signals (OD450-OD570) were read on envision board reader.
The OD450-OD570 signal value was converted into a percentage inhibition rate. Inhibition rate %=(ZPE−sample)/(ZPE−HPE)*100.
“HPE” refers to the OD450-OD570 signal value of the control well without LPS stimulated cells, and “ZPE” refers to the OD450-OD570 signal value of the control well with LPS stimulated cells. The IC50 value of the compound was calculated by XLFit in the excel add-in. Y=Bottom+(Top−Bottom)/(1+(IC50/X)^HillSlope). Equation: […]

[3] = 33P-ATP, 120 minutes at room temperature, read-out: IRAK4/IC50

SMILES | pIC50 (human IRAK4) | pIC50 (human BTK) | pIC50 (human IRAK4; [3]) | pIC50 [1] | pIC50 [2]
Cc1cc(-c2nc(C(=O)Nc3cn4cc(CCC(C)(C)O)nc4cc3C3CCCCC3)co2)ccn1 [WX022] | 9.15 | 7.37 | – | – | –
Cc1cc(-c2nc(C(=O)Nc3cn4cc(CCC(C)(C)O)nc4cc3N3CCC(CO)CC3)co2)ccn1 [WX013] | – | 8.85 | 9.70 | – | –
[2H]c1c([2H])c([2H])c(-c2cc3nc(CCC(C)(C)O)cn3cc2NC(=O)c2coc(-c3ccnc(C)c3)n2)c([2H])c1[2H] [WX033] | – | 7.69 | 8.80 | – | –
Cc1cc(-c2nc(C(=O)Nc3cn4cc(CCC(C)(C)O)nc4cc3-c3c(F)cccc3F)co2)ccn1 [WX029] | – | 7.62 | – | 6.54 | –
Cc1cc(-c2nc(C(=O)Nc3cn4cc(CCC(C)(C)O)nc4cc3-c3cccc(F)c3)co2)ccn1 [WX025] | 9.15 | 7.66 | – | 7.03 | 7.68
CC(C)(O)CCc1cn2cc(NC(=O)c3coc(-c4ccnc(C(F)(F)F)c4)n3)c(N3CCCCC3)cc2n1 [WX010] | – | – | 8.62 | – | 6.48
Cc1cc(-c2nc(C(=O)Nc3cn4cc(CCC(C)(C)O)nc4cc3N3CCC(F)(F)CC3)co2)ccn1 [WX009] | 9.15 | 7.34 | – | – | –
Cc1cc(-c2nc(C(=O)Nc3cn4cc(CCC(C)(C)O)nc4cc3-c3cccc(Cl)c3)co2)ccn1 [WX031] | – | 7.40 | – | 7.02 | –
Cc1cc(-c2nc(C(=O)Nc3cn4cc(CCC(=O)O)nc4cc3N3CCC(F)(F)CC3)co2)ccn1 [WX017] | – | – | 8.80 | – | 6.49
CC(=O)N1CCN(c2cc3nc(CCC(C)(C)O)cn3cc2NC(=O)c2coc(-c3ccnc(C)c3)n2)CC1 [WX005] | – | – | 8.96 | – | 6.59
CC(C)(O)CCc1cn2cc(NC(=O)c3coc(-c4ccnc(C5CC5)c4)n3)c(N3CCCCC3)cc2n1 [WX012] | – | 8.16 | 9.00 | – | –
Cc1cc(-c2nc(C(=O)Nc3cn4cc(CCS(C)(=O)=O)nc4cc3N3CCCCC3)co2)ccn1 [WX042] | – | 8.42 | – | – | –
Cc1cc(-c2nc(C(=O)Nc3cn4cc(CCC(C)(C)O)nc4cc3N3CCC(CN)CC3)co2)ccn1 [WX014] | 9.05 | 7.59 | – | – | –
Cc1cc(-c2nc(C(=O)Nc3cn4cc(CCC(C)(C)O)nc4cc3N3CCC(C)(C)CC3)co2)ccn1 [WX008] | – | 8.34 | 8.68 | – | –
CC(C)(O)CCc1cn2cc(NC(=O)c3coc(-c4ccnc(C#N)c4)n3)c(N3CCCCC3)cc2n1 [WX015] | 9.40 | 8.19 | – | – | –
Cc1cc(-c2nc(C(=O)Nc3cn4cc(CCC(=O)O)nc4cc3-c3cccnc3)co2)ccn1 [WX023] | – | – | 8.08 | – | –
